Consider one molecule from US20060058263A1, “Heat pasturized liquids containing glucosamine” (priority 2002, published 2006).

SMILES strings stand for the structures.

The series can be described thus: Amount of GLCN present following heating (HPAEC-PAD recovery). It is filed as physicochemical. As to the method:
To determine the amount of GLCN that remains following exposing GLCN beverages to a high temperature, such as those used in pasteurization, the following methods were used.
A beverage sample as described in the preceding examples containing […] of GLCN was dispersed in 25 g of 1.0 N HCl in a 50-mL polypropylene centrifuge tube and capped tightly. The sample was mixed for 30 seconds using a vortex mixer, then placed in a water bath at 37° C. The sample was removed from the water bath at 15-minute intervals, mixed for 30 seconds on a vortex mixer, then returned to the water bath. This cycle was repeated until the sample had been in the water bath for one hour.
After heating, the sample was mixed for 30 seconds on a vortex mixer, then centrifuged for 10 minutes to separate the liquid and solid phases. Fats, oils or lipids in the sample formed a third layer at the top of the tube. A 1-g aliquot of the aqueous sample portion was diluted 100-fold with deionized water, then transferred to an autosampler vial with filter cap.
The free glucosamine in prepared samples was determined using high performance anion-exchange chromatography with pulsed amperometric detection ([…]). The system included an EG40 eluent generator, GP50 gradient pump, AS40 autosampler, LC25 column oven, and ED40 electrochemical detector, all produced by Dionex Corporation (Sunnyvale, Calif.).
The method was adapted from Dionex Corporation Technical Note 40. A Dionex CarboPac PA-20 column was used in place of the PA-10 described in the Technical Note. The eluent was 8 mM KOH at 0.5 mL/min. The column and detector were maintained at 30° C. The injection volume was 10 μL. The standard was glucosamine hydrochloride at 10.8 mg/L. Fermentation broth samples were diluted five-fold with deionized water, ASTM Type II, and filtered through 0.2 μ vial filters in the autosampler. Multiple standards were analyzed before and after each sample set.

As for `N[C@H]1C(O)O[C@H](CO)[C@@H](O)[C@@H]1O` (some centres unmarked) [GLCN, glucosamine], the “% GlcNHCl Recovered” value runs as follows: (Grape juice, boil, 5 min) 102%; (Lemonade, 71 ° C., 20 min) 101%; (Lemonade, 90 ° C., 20 sec) 101%; (Lemonade, boil, 5 min) 100%; (Lemonade, room temperature) 102%.
